From patent US9302988B2, “Fluoromethyl-substituted pyrrole carboxamides” (GRÜNENTHAL GMBH, priority 2012, dated 2016) come the findings set out here.

Each structure is given as a SMILES string.

In the assay the target is T1, Human CaV2.2 channels (Homo sapiens, UniProt Q00975).
T1 construct: expressed in transfected cells
T1 sequence (Q00975 whole entry): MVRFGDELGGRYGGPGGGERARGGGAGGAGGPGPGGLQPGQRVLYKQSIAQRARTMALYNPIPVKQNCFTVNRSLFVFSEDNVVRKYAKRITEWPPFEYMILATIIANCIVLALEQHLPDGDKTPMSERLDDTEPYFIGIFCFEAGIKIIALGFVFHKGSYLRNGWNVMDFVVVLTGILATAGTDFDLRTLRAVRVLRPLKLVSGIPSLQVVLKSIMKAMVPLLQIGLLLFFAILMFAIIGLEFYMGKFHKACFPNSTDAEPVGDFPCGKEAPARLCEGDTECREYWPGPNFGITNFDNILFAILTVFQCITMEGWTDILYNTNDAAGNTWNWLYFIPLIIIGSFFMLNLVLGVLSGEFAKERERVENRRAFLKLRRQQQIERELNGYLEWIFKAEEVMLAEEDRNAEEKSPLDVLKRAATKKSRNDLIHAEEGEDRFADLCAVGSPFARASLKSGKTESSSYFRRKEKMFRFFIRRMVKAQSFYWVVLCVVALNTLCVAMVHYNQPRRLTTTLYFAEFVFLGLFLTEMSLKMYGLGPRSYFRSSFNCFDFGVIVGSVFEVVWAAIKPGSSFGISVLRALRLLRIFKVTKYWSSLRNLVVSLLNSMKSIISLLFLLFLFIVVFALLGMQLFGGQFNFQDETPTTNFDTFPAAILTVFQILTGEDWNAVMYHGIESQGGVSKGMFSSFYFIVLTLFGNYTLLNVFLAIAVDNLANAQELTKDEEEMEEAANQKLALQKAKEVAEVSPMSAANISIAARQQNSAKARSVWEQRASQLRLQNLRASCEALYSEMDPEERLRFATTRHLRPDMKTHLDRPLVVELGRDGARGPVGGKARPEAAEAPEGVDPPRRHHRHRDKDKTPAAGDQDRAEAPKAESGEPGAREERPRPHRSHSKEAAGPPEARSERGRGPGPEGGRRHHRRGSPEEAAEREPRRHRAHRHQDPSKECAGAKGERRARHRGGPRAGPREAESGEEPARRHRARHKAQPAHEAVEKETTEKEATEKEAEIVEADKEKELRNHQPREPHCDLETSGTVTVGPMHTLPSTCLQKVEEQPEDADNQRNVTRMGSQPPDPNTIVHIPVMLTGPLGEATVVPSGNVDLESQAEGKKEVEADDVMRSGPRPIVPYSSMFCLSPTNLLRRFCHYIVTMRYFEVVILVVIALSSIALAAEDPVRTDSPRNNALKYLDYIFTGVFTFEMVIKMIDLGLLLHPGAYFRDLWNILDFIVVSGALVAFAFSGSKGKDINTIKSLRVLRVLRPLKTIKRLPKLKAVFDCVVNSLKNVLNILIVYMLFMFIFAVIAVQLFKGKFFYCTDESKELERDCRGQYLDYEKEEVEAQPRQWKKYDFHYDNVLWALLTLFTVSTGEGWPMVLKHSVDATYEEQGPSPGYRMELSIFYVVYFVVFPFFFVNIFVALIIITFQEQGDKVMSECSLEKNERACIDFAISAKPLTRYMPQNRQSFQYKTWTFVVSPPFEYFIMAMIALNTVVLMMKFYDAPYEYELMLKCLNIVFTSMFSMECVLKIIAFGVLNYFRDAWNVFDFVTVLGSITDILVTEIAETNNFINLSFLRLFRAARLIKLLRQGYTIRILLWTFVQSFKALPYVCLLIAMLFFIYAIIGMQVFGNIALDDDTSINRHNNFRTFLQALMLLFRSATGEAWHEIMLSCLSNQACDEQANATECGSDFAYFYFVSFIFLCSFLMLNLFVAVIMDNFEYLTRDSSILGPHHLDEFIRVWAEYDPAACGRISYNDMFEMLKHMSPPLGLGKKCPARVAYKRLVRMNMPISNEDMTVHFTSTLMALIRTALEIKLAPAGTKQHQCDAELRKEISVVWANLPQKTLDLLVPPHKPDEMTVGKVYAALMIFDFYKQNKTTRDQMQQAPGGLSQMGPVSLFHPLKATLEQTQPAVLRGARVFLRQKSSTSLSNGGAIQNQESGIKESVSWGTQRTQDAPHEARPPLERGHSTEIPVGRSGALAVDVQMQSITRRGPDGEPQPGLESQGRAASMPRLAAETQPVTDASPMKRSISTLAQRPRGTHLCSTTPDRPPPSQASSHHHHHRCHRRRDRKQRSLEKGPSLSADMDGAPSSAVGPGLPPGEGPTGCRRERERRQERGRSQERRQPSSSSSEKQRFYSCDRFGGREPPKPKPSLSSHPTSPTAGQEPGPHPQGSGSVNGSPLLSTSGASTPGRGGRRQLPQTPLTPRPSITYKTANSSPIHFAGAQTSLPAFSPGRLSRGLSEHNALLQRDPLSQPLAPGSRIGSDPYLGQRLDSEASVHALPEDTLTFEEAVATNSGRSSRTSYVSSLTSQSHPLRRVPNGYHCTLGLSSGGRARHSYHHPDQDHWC
T1 sequence (P54289 25-1103, further chain): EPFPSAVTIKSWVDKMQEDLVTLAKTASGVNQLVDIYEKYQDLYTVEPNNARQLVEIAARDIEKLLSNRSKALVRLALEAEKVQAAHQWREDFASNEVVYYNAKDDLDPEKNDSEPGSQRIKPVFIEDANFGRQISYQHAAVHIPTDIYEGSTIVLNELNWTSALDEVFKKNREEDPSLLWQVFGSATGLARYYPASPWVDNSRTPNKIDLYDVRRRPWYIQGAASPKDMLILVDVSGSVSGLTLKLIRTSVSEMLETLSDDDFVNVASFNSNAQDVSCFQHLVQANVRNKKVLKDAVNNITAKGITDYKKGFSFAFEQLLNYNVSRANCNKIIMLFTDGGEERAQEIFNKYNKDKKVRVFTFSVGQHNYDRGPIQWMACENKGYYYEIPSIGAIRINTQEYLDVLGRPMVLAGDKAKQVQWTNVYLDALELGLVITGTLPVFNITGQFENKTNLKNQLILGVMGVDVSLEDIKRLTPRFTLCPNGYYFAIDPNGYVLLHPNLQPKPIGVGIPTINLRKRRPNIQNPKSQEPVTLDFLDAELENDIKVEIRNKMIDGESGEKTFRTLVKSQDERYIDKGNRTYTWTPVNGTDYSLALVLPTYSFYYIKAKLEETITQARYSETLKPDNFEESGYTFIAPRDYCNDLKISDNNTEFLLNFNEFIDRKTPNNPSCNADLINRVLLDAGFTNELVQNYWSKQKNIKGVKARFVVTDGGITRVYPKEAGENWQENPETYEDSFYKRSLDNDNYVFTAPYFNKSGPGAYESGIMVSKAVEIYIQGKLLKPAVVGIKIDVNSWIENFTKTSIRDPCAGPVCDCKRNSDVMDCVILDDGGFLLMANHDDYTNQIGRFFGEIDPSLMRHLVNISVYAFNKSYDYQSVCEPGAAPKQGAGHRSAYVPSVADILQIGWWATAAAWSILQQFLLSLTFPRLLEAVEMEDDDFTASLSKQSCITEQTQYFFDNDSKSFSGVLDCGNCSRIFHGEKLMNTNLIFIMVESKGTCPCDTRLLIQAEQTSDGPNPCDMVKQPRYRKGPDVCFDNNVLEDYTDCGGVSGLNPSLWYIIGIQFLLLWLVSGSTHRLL
T1 sequence (P54284 whole entry, further chain): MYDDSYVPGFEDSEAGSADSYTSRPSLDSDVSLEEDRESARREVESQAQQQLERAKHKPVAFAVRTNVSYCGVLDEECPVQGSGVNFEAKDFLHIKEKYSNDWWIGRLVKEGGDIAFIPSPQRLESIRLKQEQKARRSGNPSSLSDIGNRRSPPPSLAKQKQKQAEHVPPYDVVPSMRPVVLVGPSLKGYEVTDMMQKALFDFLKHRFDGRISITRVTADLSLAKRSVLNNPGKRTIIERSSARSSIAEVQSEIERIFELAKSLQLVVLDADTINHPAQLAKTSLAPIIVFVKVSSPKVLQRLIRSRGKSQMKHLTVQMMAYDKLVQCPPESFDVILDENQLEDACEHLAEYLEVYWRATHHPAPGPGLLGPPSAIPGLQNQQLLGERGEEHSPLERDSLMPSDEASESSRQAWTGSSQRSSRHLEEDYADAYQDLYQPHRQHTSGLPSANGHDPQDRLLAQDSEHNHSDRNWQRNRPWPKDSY
Nature of the assay: Fluorescent assay for CaV2.2 channels using potassium depolarization to induce channel opening (FLIPR, Fluo-4). The format is cell-based. Particulars: 3 μM test compound, 30 mM KCl, HEK293 cells stably expressing human CaV2.2; read-out: %-Inhib (CaV2.2) @3 μM @30 mM KCl. In outline:
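HEK293 cells stably co-expressing CaV2.2 with α2δ and β subunits plus Kir2.3 were Fluo-4 loaded, then preincubated 15 min at 25 °C with compound in 30 mM KCl buffer, pH 7.4. Depolarization was by adding buffer containing 210 mM KCl. Inhibition was taken from baseline-normalized peak fluorescence amplitude (ex 480/em 535 nm).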
Turning to `Cc1c(-c2ccc(Cl)c(F)c2)c(C(=O)N(C)CC(C)(C)CO)n(Cc2ccccc2)c1C(F)(F)F` [SC-243, 1-Benzyl-3-(4-chloro-3-fluoro-phenyl)-N-(3-hydroxy-2,2-dimethyl-propyl)-N,4-dimethyl-5-(trifluoromethyl)-1H-pyrrole-2-carboxylic acid amide], the inhibition at 3 µM was greater than 95%. As to `CN(C(=O)c1c(-c2ccc(Cl)cc2)cc(C(F)(F)F)n1Cc1ccccc1)C(CO)C(C)(C)C` (stereo not shown) [SC-186, 1-Benzyl-3-(4-chlorophenyl)-N-[1-(hydroxymethyl)-2,2-dimethyl-propyl]-N-methyl-5-(trifluoromethyl)-1H-pyrrole-2-carboxylic acid amide], the inhibition at 3 µM is greater than 95%. Turning to `Cc1c(-c2ccc(Cl)cc2F)c(C(=O)N(C)C2CC2)n(Cc2ccccc2)c1C(F)(F)F` [SC-159, 1-Benzyl-3-(4-chloro-2-fluoro-phenyl)-N-cyclopropyl-N,4-dimethyl-5-(trifluoromethyl)-1H-pyrrole-2-carboxylic acid amide], the inhibition at 3 µM is greater than 95%. Take `Cc1c(-c2ccc(OC(F)(F)F)cc2)c(C(=O)N(C)C(C)(C)CO)n(Cc2ccccc2)c1C(F)(F)F` [SC-241, 1-Benzyl-N-(2-hydroxy-1,1-dimethyl-ethyl)-N,4-dimethyl-5-(trifluoromethyl)-3-[4-(trifluoromethyloxy)-phenyl]-1H-pyrrole-2-carboxylic acid amide]: the inhibition at 3 µM is greater than 95%. Turning to `CN(CC1CCOC1)C(=O)c1c(-c2ccc(Cl)cc2)cc(C(F)(F)F)n1Cc1ccccc1` (stereo not shown) [SC-182, 1-Benzyl-3-(4-chlorophenyl)-N-methyl-N-(tetrahydro-furan-3-yl-methyl)-5-(trifluoromethyl)-1H-pyrrole-2-carboxylic acid amide], the inhibition at 3 µM is greater than 95%. In the case of `Cc1c(-c2ccc(Cl)cc2)c(C(=O)N2CCC(S(C)(=O)=O)C2)n(Cc2ccccc2)c1C(F)(F)F` (stereo not shown) [SC-123, [1-Benzyl-3-(4-chlorophenyl)-4-methyl-5-(trifluoromethyl)-1H-pyrrol-2-yl]-(3-methylsulfonyl-pyrrolidin-1-yl)-methanone] it was greater than 95%; in that of `Cc1nnc(CN(C)C(=O)c2c(-c3ccc(Cl)cc3)c(C)c(C(F)(F)F)n2Cc2ccccc2)o1` [SC-143, 1-Benzyl-3-(4-chlorophenyl)-N,4-dimethyl-N-[(5-methyl-[1,3,4]oxadiazol-2-yl)-methyl]-5-(trifluoromethyl)-1H-pyrrole-2-carboxylic acid amide], greater than 95%. As for `Cc1c(-c2ccc(Cl)cc2)c(C(=O)N(C)CC2CCC[C@H]2O)n(Cc2ccccc2)c1C(F)(F)F` (stereo partly drawn) [SC-136, 1-Benzyl-3-(4-chlorophenyl)-N-[[(2R)-2-hydroxy-cyclopentyl]-methyl]-N,4-dimethyl-5-(trifluoromethyl)-1H-pyrrole-2-carboxylic acid amide], the inhibition at 3 µM was greater than 95%. `Cc1c(-c2ccc(Cl)cc2)c(C(=O)N(C)CC2(O)CC2)n(Cc2ccccc2)c1C(F)(F)F` [SC-65, 1-Benzyl-3-(4-chlorophenyl)-N-[(1-hydroxy-cyclopropyl)-methyl]-N,4-dimethyl-5-(trifluoromethyl)-1H-pyrrole-2-carboxylic acid amide]: the inhibition at 3 µM is greater than 95%. Regarding `Cc1c(-c2ccc(C(F)(F)F)cc2)c(C(=O)N2CCOCC2)n(Cc2ccccc2)c1C(F)(F)F` [SC-102, [1-Benzyl-4-methyl-5-(trifluoromethyl)-3-[4-(trifluoromethyl)-phenyl]-1H-pyrrol-2-yl]-morpholin-4-yl-methanone], the inhibition at 3 µM was in the range of 75 to 95%. Take `Cc1c(-c2ccc(Cl)cc2)c(C(=O)N2CCC(O)CC2)n(Cc2ccccc2)c1C(F)(F)F` [SC-17, [1-Benzyl-3-(4-chlorophenyl)-4-methyl-5-(trifluoromethyl)-1H-pyrrol-2-yl]-(4-hydroxy-piperidin-1-yl)-methanone]: the inhibition at 3 µM was greater than 95%. In the case of `Cc1c(-c2ccc(Cl)cc2F)c(C(=O)N(C)CC2CCOC2)n(Cc2ccccc2)c1C(F)(F)F` (stereo not shown) [SC-167, 1-Benzyl-3-(4-chloro-2-fluoro-phenyl)-N,4-dimethyl-N-(tetrahydro-furan-3-yl-methyl)-5-(trifluoromethyl)-1H-pyrrole-2-carboxylic acid amide], the inhibition at 3 µM was greater than 95%. In the case of `CN(Cc1cnccn1)C(=O)c1c(-c2ccc(Cl)cc2)cc(C(F)(F)F)n1Cc1ccccc1` [SC-210, 1-Benzyl-3-(4-chlorophenyl)-N-methyl-N-(pyrazin-2-yl-methyl)-5-(trifluoromethyl)-1H-pyrrole-2-carboxylic acid amide], the inhibition at 3 µM lay in the range of 75 to 95%.

As for `Cc1c(-c2ccc(C(F)(F)F)cc2)c(C(=O)N(C)CC(C)(C)CO)n(Cc2ccccc2)c1C(F)(F)F` [SC-227, 1-Benzyl-N-(3-hydroxy-2,2-dimethyl-propyl)-N,4-dimethyl-5-(trifluoromethyl)-3-[4-(trifluoromethyl)-phenyl]-1H-pyrrole-2-carboxylic acid amide], the inhibition at 3 µM lay in the range of 75 to 95%. For `CCc1c(-c2ccc(Cl)cc2)c(C(=O)N(C)CC(C)(C)C)n(Cc2ccccc2)c1C(F)(F)F` [SC-119, 1-Benzyl-3-(4-chlorophenyl)-N-(2,2-dimethyl-propyl)-4-ethyl-N-methyl-5-(trifluoromethyl)-1H-pyrrole-2-carboxylic acid amide], the inhibition at 3 µM was 75 to 95%.

For the compound `Cc1c(-c2ccc(Cl)cc2)c(C(=O)N(C)CCS(C)(=O)=O)n(Cc2cccc(Cl)c2)c1C(F)(F)F` [SC-56, 3-(4-Chlorophenyl)-1-[(3-chlorophenyl)-methyl]-N,4-dimethyl-N-(2-methylsulfonyl-ethyl)-5-(trifluoromethyl)-1H-pyrrole-2-carboxylic acid amide], the inhibition at 3 µM was greater than 95%. Take `Cc1c(-c2ccc(F)cc2)c(C(=O)N(C)C2CCOCC2)n(Cc2ccccc2)c1C(F)(F)F` [SC-220, 1-Benzyl-3-(4-fluorophenyl)-N,4-dimethyl-N-tetrahydro-pyran-4-yl-5-(trifluoromethyl)-1H-pyrrole-2-carboxylic acid amide]: the inhibition at 3 µM was greater than 95%. Take `O=C1CN(C(=O)c2c(-c3ccc(Cl)cc3)cc(C(F)(F)F)n2Cc2cccc(Cl)c2)CCN1` [SC-81, 4-[3-(4-Chlorophenyl)-1-[(3-chlorophenyl)-methyl]-5-(trifluoromethyl)-1H-pyrrole-2-carbonyl]-piperazin-2-one]: the inhibition at 3 µM was greater than 95%.

Regarding `Cc1c(-c2ccc(F)c(Cl)c2)c(C(=O)N(C)CC(C)(C)CO)n(Cc2ccccc2)c1C(F)(F)F` [SC-251, 1-Benzyl-3-(3-chloro-4-fluoro-phenyl)-N-(3-hydroxy-2,2-dimethyl-propyl)-N,4-dimethyl-5-(trifluoromethyl)-1H-pyrrole-2-carboxylic acid amide], the inhibition at 3 µM lay within 75 to 95%. Consider `Cc1c(-c2ccc(F)c(Cl)c2)c(C(=O)N(C)CC(C)(C)C)n(Cc2ccccc2)c1C(F)(F)F` [SC-256, 1-Benzyl-3-(3-chloro-4-fluoro-phenyl)-N-(2,2-dimethyl-propyl)-N,4-dimethyl-5-(trifluoromethyl)-1H-pyrrole-2-carboxylic acid amide], for which the inhibition at 3 µM was in the range of 30 to 40%.

On to `Cc1c(-c2ccc(Cl)c(F)c2)c(C(=O)N(C)C(C)(C)CO)n(Cc2ccccc2)c1C(F)(F)F` [SC-248, 1-Benzyl-3-(4-chloro-3-fluoro-phenyl)-N-(2-hydroxy-1,1-dimethyl-ethyl)-N,4-dimethyl-5-(trifluoromethyl)-1H-pyrrole-2-carboxylic acid amide], for which the inhibition at 3 µM lay in the range of 75 to 95%. As to `O=C(c1c(-c2ccc(Cl)cc2)cc(C(F)(F)F)n1Cc1ccccc1)N1CC(O)C1` [SC-72, [1-Benzyl-3-(4-chlorophenyl)-5-(trifluoromethyl)-1H-pyrrol-2-yl]-(3-hydroxy-azetidin-1-yl)-methanone], the inhibition at 3 µM lay in the range of 75 to 95%. Take `Cc1nnc(CN(C)C(=O)c2c(-c3ccc(Cl)cc3)cc(C(F)(F)F)n2Cc2ccccc2)o1` [SC-206, 1-Benzyl-3-(4-chlorophenyl)-N-methyl-N-[(5-methyl-[1,3,4]oxadiazol-2-yl)-methyl]-5-(trifluoromethyl)-1H-pyrrole-2-carboxylic acid amide]: the inhibition at 3 µM was 75 to 95%. On to `Cc1c(-c2ccc(Cl)c(F)c2)c(C(=O)N(C)CCS(C)(=O)=O)n(Cc2ccccc2)c1C(F)(F)F` [SC-244, 1-Benzyl-3-(4-chloro-3-fluoro-phenyl)-N,4-dimethyl-N-(2-methylsulfonyl-ethyl)-5-(trifluoromethyl)-1H-pyrrole-2-carboxylic acid amide], for which the inhibition at 3 µM lay within 75 to 95%. Consider `CN(CCCS(C)(=O)=O)C(=O)c1c(-c2ccc(Cl)cc2)cc(C(F)(F)F)n1Cc1ccccc1` [SC-189, 1-Benzyl-3-(4-chlorophenyl)-N-methyl-N-(3-methylsulfonyl-propyl)-5-(trifluoromethyl)-1H-pyrrole-2-carboxylic acid amide], for which the inhibition at 3 µM is greater than 95%. In the case of `Cc1c(-c2ccc(Cl)cc2)c(C(=O)N2CCC(O)C2)n(Cc2ccccc2)c1C(F)(F)F` (stereo not shown) [SC-23, [1-Benzyl-3-(4-chlorophenyl)-4-methyl-5-(trifluoromethyl)-1H-pyrrol-2-yl]-(3-hydroxy-pyrrolidin-1-yl)-methanone], the inhibition at 3 µM was in the range of 75 to 95%. Turning to `COC1CCN(C(=O)c2c(-c3ccc(Cl)cc3)c(C)c(C(F)(F)F)n2Cc2ccccc2)CC1` [SC-145, [1-Benzyl-3-(4-chlorophenyl)-4-methyl-5-(trifluoromethyl)-1H-pyrrol-2-yl]-(4-methoxy-piperidin-1-yl)-methanone], the inhibition at 3 µM is greater than 95%. As for `CN(CC1CCC[C@@H]1O)C(=O)c1c(-c2ccc(Cl)cc2)cc(C(F)(F)F)n1Cc1ccccc1` (stereo partly drawn) [SC-199, 1-Benzyl-3-(4-chlorophenyl)-N-[[(2S)-2-hydroxy-cyclopentyl]-methyl]-N-methyl-5-(trifluoromethyl)-1H-pyrrole-2-carboxylic acid amide], the inhibition at 3 µM is greater than 95%.
